{
  "source": "patent US6077513A",
  "about": "“Drug for treatment of bilharziasis (Schistosomiasis)” (priority 1997, dated 2000)",
  "origin": "cited, not measured here",
  "key": {"[1]": {"tested_on": "isolated guinea pig ileum"}},
  "data": [
    {"smiles": "CC1=C[C@@H]2[C@@H](CC1)[C@@](C)(O)CC[C@H]2C(C)C", "note": "[T-Cadinol]", "values": [
      {"measurement": "smooth muscle relaxing effect", "setting": "[1]", "value": "concentration - dependent smooth muscle relaxing effect"},
      {"measurement": "antibacterial effect", "setting": "Staphylococcus aureus", "value": "bacterial lysis and subsequent fatal loss of intracellular components"}
    ]}
  ]
}
